Results on six molecules are retold here after patent US7264921B2, “No synthase assay particles and method” (GE Healthcare UK Limited, priority 2001, dated 2007).

Assay [1] addresses T1, iNOS (Mus musculus, UniProt P29477). Briefly: iNOS SPA enzyme assay, effect of solvents. Type of assay: biochemical, murine. Details: purchased Cayman Chemical Company 60864. Particulars: for Time (mins) cpm, 0: 0 min; for Time (mins) cpm, 5: 5 min; for Time (mins) cpm, 10: 10 min; for Time (mins) cpm, 20: 20 min; for % change in ratio: versus water. As to the method: The effect of using different solvents to dissolve test inhibitor compounds was tested, using the assay conditions as described in Example 4 above. […] Appropriate ‘experimental controls’ should therefore be used in all experiments.

Assay [2] deals with T1, iNOS. Briefly: biochemical.
Experimental: Reaction conditions and data measurement were as described in Example 3 above, using 10 μl of iNOS (Cayman Chemical Company, Catalogue Number 60864) enzyme equivalent to 0.038 units/well.
The assay conditions were as described in Example 4 above employing a range of inhibitor concentrations.
Assay [3] has as its target T1, iNOS. Briefly: iNOS enzyme assay, competition experiment I (LEADseeker beads, 14C arginine). Type of assay: biochemical, murine. Details: purchased Cayman Chemical Company 60864. Particulars: from dose response curve FIG. 8; 1 hour room temperature; read-out: IC50 (50% inhibition of the enzyme). As to the method:
The preferential capture of arginine compared to citrulline can be utilised in a signal decrease assay. The assay is performed in a 3074 Costar 384 well plate Enzyme (iNOS murine macrophage, recombinant. Cayman catalogue no. 60864, 112 units/ml) is diluted 10 times in assay buffer (1.2 mM NADPH, 3.6 mM DTT, 4.8 uM FAD, 4.8 uM FMN, 4.8 uM biopterin in 50 mM TRIS pH 7.5. Diluted enzyme (10 μl) is incubated with 1.5 μl inhibitor/agonist dissolved in 100% DMSO along with 10 μl ^14C arginine tracer (APBiotech, CFB63, 300 mCi/mMol stock solution diluted in assay buffer to 100,000-150,000 cpm in 10 μl) for 1 hour at room temperature, protected from light. 10 μl LEADseeker beads suspended in a “stop” solution (360 μM aminoguanidine, 20 mM EDTA, pH 8) to 100 mg/ml (i.e 10 μl=1 mg/well) are added and the mixture incubated at room temperature for at least 2 hours. Control reactions were carried out by replacing the inhibitor with 1.5 μl water. The results are read by counting in LEADseeker™ (binning at 2×2, Q coincidence and imaged for 5 mins).
The baseline was determined using 1.5 μl 1 mM aminoguanidine (final concentration 70 μM) and maximum response using 1.5 μl 30 mM aminoguanidine (final concentration).

Where a name gives a salt, the structure may show the parent alone.

As a reminder, the IC50 is the concentration needed to halve the response being measured.

In the case of `C[S+](C)[O-]` [DMSO], on iNOS [1] (1% solvent), the “Ratio Time 0/20 mins” value came out at 6.39; the “Time (mins) cpm, 0” value is on record as 10324 cpm; the “Time (mins) cpm, 5” value turned out to be 7128 cpm; the “Time (mins) cpm, 10” value came to 4330 cpm. Besides, on iNOS [1] (1% solvent), the “Time (mins) cpm, 20” value is listed as 1615 cpm and the “% change in ratio” value is 10%. For the same molecule, at iNOS [1] (5% solvent), the “Ratio Time 0/20 mins” value was determined as 5.12; the “Time (mins) cpm, 0” value came out at 8530 cpm; the “Time (mins) cpm, 5” value was 4166 cpm; the “Time (mins) cpm, 10” value was found to be 4453 cpm. In addition, at iNOS [1] (5% solvent), the “Time (mins) cpm, 20” value was 1665 cpm and the “% change in ratio” value was 28%. Besides, on iNOS [1] (10% solvent), the “Ratio Time 0/20 mins” value is recorded as 3.10; the “Time (mins) cpm, 0” value turned out to be 6630 cpm; the “Time (mins) cpm, 5” value is 3884 cpm; the “Time (mins) cpm, 10” value turned out to be 3666 cpm. At iNOS [1] (10% solvent), the “Time (mins) cpm, 20” value turned out to be 2138 cpm and the “% change in ratio” value was 56%.

`CCSC(=N)N` [SEITU, 2-ethyl-2-thiopseudourea hydrobromide]: 0.032 µM corresponded to half-maximal inhibition at iNOS [2] (IC50).

Regarding `CC(C)=O` [acetone], at iNOS [1] (1% solvent), the “Ratio Time 0/20 mins” value came out at 6.54; the “Time (mins) cpm, 0” value was found to be 12884 cpm; the “Time (mins) cpm, 5” value was found to be 8509 cpm; the “Time (mins) cpm, 10” value amounted to 5169 cpm. Also, on iNOS [1] (1% solvent), the “Time (mins) cpm, 20” value amounted to 1971 cpm and the “% change in ratio” value is listed as 8%. For the same molecule, at iNOS [1] (5% solvent), the “Ratio Time 0/20 mins” value came to 4.78; the “Time (mins) cpm, 0” value is listed as 12431 cpm; the “Time (mins) cpm, 5” value turned out to be 8409 cpm; the “Time (mins) cpm, 10” value was determined as 6708 cpm. For the same molecule, at iNOS [1] (5% solvent), the “Time (mins) cpm, 20” value was found to be 2601 cpm and the “% change in ratio” value amounted to 33%. For the same molecule, on iNOS [1] (10% solvent), the “Ratio Time 0/20 mins” value was 3.19; the “Time (mins) cpm, 0” value amounted to 10201 cpm; the “Time (mins) cpm, 5” value was found to be 6255 cpm; the “Time (mins) cpm, 10” value was determined as 6464 cpm. For the same molecule, on iNOS [1] (10% solvent), the “Time (mins) cpm, 20” value was determined as 3193 cpm and the “% change in ratio” value was 55%.

As to `N=C(N)NN` [aminoguanidine], the IC50 on iNOS [3] is roughly 500 µM.

For `CCO` [ethanol], at iNOS [1] (1% solvent), the “Ratio Time 0/20 mins” value was 6.57; the “Time (mins) cpm, 0” value was found to be 13409 cpm; the “Time (mins) cpm, 5” value came out at 9004 cpm; the “Time (mins) cpm, 10” value is on record as 5580 cpm. Moreover, on iNOS [1] (1% solvent), the “Time (mins) cpm, 20” value is 2040 cpm and the “% change in ratio” value was 8%. Moreover, on iNOS [1] (5% solvent), the “Ratio Time 0/20 mins” value is 4.19; the “Time (mins) cpm, 0” value was 13248 cpm; the “Time (mins) cpm, 5” value turned out to be 7465 cpm; the “Time (mins) cpm, 10” value was determined as 6596 cpm. For the same molecule, at iNOS [1] (5% solvent), the “Time (mins) cpm, 20” value turned out to be 3161 cpm and the “% change in ratio” value was found to be 41%. Also, at iNOS [1] (10% solvent), the “Ratio Time 0/20 mins” value was found to be 3.23; the “Time (mins) cpm, 0” value stood at 12008 cpm; the “Time (mins) cpm, 5” value is recorded as 6316 cpm; the “Time (mins) cpm, 10” value is on record as 5987 cpm. Besides, at iNOS [1] (10% solvent), the “Time (mins) cpm, 20” value stood at 3715 cpm and the “% change in ratio” value is 54%.

With `CO` [methanol], at iNOS [1] (1% solvent), the “Ratio Time 0/20 mins” value came to 7.56; the “Time (mins) cpm, 0” value came out at 14914 cpm; the “Time (mins) cpm, 5” value worked out at 8639 cpm; the “Time (mins) cpm, 10” value turned out to be 4989 cpm. The “Time (mins) cpm, 20” value at iNOS [1] (1% solvent) is recorded as 1973 cpm. Also, at iNOS [1] (5% solvent), the “Ratio Time 0/20 mins” value was determined as 7.13; the “Time (mins) cpm, 0” value was found to be 15317 cpm; the “Time (mins) cpm, 5” value is reported as 7939 cpm; the “Time (mins) cpm, 10” value is given as 5466 cpm. Further, the “Time (mins) cpm, 20” value on iNOS [1] (5% solvent) came out at 2147 cpm. Moreover, at iNOS [1] (10% solvent), the “Ratio Time 0/20 mins” value was 6.32; the “Time (mins) cpm, 0” value stood at 12488 cpm; the “Time (mins) cpm, 5” value was 6631 cpm; the “Time (mins) cpm, 10” value was found to be 4698 cpm. Moreover, on iNOS [1] (10% solvent), the “Time (mins) cpm, 20” value came to 1975 cpm and the “% change in ratio” value was determined as 10%.
